# Results reported in paper PMC8658804, “Small Molecule CD38 Inhibitors: Synthesis of 8-Amino-N1-Inosine 5′-Monophosphate, Analogues and Early Structure-Activity Relationship” (Molecules (Basel, Switzerland), 2021).
# Entries after “also recorded” stand apart in the source; their conditions may differ. Read-outs that look alike come from different tables or passages of the source.
# Legend:
# T-cells = tested on: T-cells; parameters: method as in PMID 12932045, PMID 16967053; details: compared with cADPR; cited from earlier work
# CD38 [1] = molecular target: T1, CD38 (Homo sapiens, UniProt P28907); details: N1-IMP fragments and 8-NH2-N1-cIDPR from earlier work; read-out: IC50, inhibition of CD38-catalyzed cADPR hydrolysis; cited from earlier work
# T1 construct: incubating 1 mM cADPR with 2 mg/mL of CD38 for 10 min
# T1 sequence (P28907 1-300): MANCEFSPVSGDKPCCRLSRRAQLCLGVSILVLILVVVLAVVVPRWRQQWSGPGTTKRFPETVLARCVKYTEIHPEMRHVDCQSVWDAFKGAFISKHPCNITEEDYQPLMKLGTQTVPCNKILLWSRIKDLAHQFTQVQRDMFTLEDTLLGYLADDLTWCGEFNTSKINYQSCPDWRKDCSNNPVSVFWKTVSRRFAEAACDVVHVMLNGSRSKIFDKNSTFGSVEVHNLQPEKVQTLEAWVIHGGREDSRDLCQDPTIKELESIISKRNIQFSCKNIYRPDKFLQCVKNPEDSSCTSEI
# [2] = molecular target: T2, shCD38 (CD38 catalytic domain) (Homo sapiens, UniProt P28907); experiment: Ligand hydrolysis by high concentrations of shCD38, monitored by RP-HPLC; type: biochemical; details: 1 mM ligand, 4 mg/mL shCD38
# T2 construct: high concentrations of CD38 catalytic domain (shCD38) present in crystallography media
# T2 sequence (P28907 43-300 limits assumed): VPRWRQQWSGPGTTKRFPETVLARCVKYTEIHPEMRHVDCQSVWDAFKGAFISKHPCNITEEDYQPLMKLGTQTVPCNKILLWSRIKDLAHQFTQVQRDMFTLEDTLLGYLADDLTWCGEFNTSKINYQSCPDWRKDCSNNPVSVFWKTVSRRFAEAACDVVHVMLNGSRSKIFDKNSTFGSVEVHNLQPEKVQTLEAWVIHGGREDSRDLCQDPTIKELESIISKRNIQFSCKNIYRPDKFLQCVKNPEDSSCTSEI
# Description: Indeed, 8-NH2-N9-butyl-cIDPR (6, Figure 2) was captured as the hydrolyzed product in the crystal structure with shCD38. […] Incubation of 11, 8-NH2-N1-IMP (1 mM final concentration) with 4 mg/mL shCD38 was monitored using RP-HPLC. The peak corresponding to 8-NH2-N1-IMP (RT = 10.5 min) reduced in intensity over time, alongside the appearance of a new peak (RT = 2.0 min) that was characteristic of an 8-amino substituted hypoxanthine analog (See Supplementary Information, Figure S1).
# HPLC studies were carried out as previously described.[36] Briefly, the solution containing shCD38 was adjusted to the desired concentration using Tris-HCl buffer (20 mM, pH 8) and 50 μL was added to the inhibitor (0.05 μmole) in an Eppendorf tube at room temperature. At a given time point, a sample of 5 μL was removed and diluted with 95 μL MilliQ water. 10 μL Of this sample was injected directly into the analytical HPLC system (see General Experimental), eluting at 1 mL/min with an isocratic ion-pair buffer: 0.17% (m/v) cetrimide and 45% (v/v) phosphate buffer (pH 6.4) in MeOH.
# CD38 [3] = molecular target: T1, CD38; experiment: Inhibition of CD38-catalyzed cADPR hydrolysis (fluorimetric cycling assay); type: biochemical; details: for inhibitory activity (IC50) of CD38-mediated cADPR hydrolysis / IC50: 1 mM cADPR, 2 mg/mL CD38, 10 min, pH 4.5, IC50 values >1000 μM are approximate; for IC50: read-out: inhibitory activity (IC50) of CD38-mediated cADPR hydrolysis
# Description: The inhibition of cADPR hydrolysis by various concentrations of inhibitor (0–1 mM) was determined by incubating 1 mM cADPR with 2 mg/mL of CD38 for 10 min at 20–24uC in 25 mM sodium acetate, pH 4.5. The reaction was stopped by the addition of 150 mM HCl. The precipitated protein was filtered, and the pH was neutralized with Tris base. After diluting the mixture 20-fold, the concentration of the unhydrolyzed cADPR present in the diluted reaction mixture was assayed by the fluorimetric cycling assay as previously described.[46]
# [4] = Solubility in the assay medium; type: physicochemical; details: CD38 assay medium
Compound,"inhibitory activity on CD38-mediated cADPR hydrolysis, in words (CD38 [3])",IC50 (CD38 [3]),further results
"O=c1c2ncn3c2ncn1[C@@H]1O[C@H](COP(=O)(O)OP(=O)(O)OC[C@H]2O[C@@H]3[C@H](O)[C@@H]2O)[C@@H](O)[C@H]1O [Compound 2, cyclic inosine 5′-diphosphoribose]",–,–,Ca2+ release (T-cells): almost indistinguishably to that induced by cADPR
"Nc1nc2c(=O)n3cnc2n1[C@@H]1O[C@H](COP(=O)(O)OP(=O)(O)OC[C@H]2O[C@@H]3[C@H](O)[C@@H]2O)[C@@H](O)[C@H]1O [Compound 4, 8-NH2-N1-cIDPR, reference compound]",–,–,IC50 (CD38 [1]): 56 µM
"O=c1c2nc[nH]c2ncn1[C@@H]1O[C@H](COP(=O)(O)O)[C@@H](O)[C@H]1O [Compound 9, N1-Inosine 5′-monophosphate]",–,–,IC50 (CD38 [1]): 14 ± 5 µM
"O=c1c2nc(Br)[nH]c2ncn1[C@@H]1O[C@H](COP(=O)(O)O)[C@@H](O)[C@H]1O [Compound 10, N1-(5′-O-Phosphoryl-β-D-ribofuranosyl)-8-bromohypoxanthine]",–,–,IC50 (CD38 [1]): 201 ± 41 µM
"Nc1nc2c(=O)n([C@@H]3O[C@H](COP(=O)(O)O)[C@@H](O)[C@H]3O)cnc2[nH]1 [Compound 11, N1-(5′-O-Phosphoryl-β-D-ribofuranosyl)-8-aminohypoxanthine]",–,–,"hydrolysis of ligand by shCD38 (RP-HPLC) [2]: hydrolyzed more rapidly than cIDPR (2), but more slowly than 8-NH2-N9-butyl-cIDPR (6); also recorded: hydrolyzed at the N1-ribosyl bond; hydrolysis of ligand by shCD38 (RP-HPLC) ([2]; listed as 8-NH2-N1-IMP): cleaved at high CD38 concentrations; IC50 (CD38 [1]): 7.6 ± 0.2 µM"
"O=c1c2nc(Br)n([C@@H]3O[C@H](CO)[C@@H](O)[C@H]3O)c2ncn1[C@@H]1O[C@H](CO)[C@@H](O)[C@H]1O [Compound 14, N1-(β-D-Ribofuranosyl)-8-bromoinosine]",no activity,–,inhibitory activity (IC50) of CD38-mediated cADPR hydrolysis (CD38 [3]): No activity
"O=c1c2ncn([C@@H]3O[C@H](CO)[C@@H](O)[C@H]3O)c2ncn1[C@@H]1O[C@H](CO)[C@@H](O)[C@H]1O [Compound 15, N1-(β-D-Ribofuranosyl)-inosine]",low mM inhibitory activity,~7500 µM,–
"[N-]=[N+]=Nc1nc2c(=O)n([C@@H]3O[C@H](CO)[C@@H](O)[C@H]3O)cnc2n1[C@@H]1O[C@H](CO)[C@@H](O)[C@H]1O [Compound 16, N1-(β-D-ribofuranosyl)-8-azidoinosine]",no activity,–,inhibitory activity (IC50) of CD38-mediated cADPR hydrolysis (CD38 [3]): No activity
"Nc1nc2c(=O)n([C@@H]3O[C@H](CO)[C@@H](O)[C@H]3O)cnc2n1[C@@H]1O[C@H](CO)[C@@H](O)[C@H]1O [Compound 17, N1-(β-D-ribofuranosyl)-8-aminoinosine]",low mM inhibitory activity,~7600 µM,–
"O=c1c2nc(Br)n(CCCCO)c2ncn1[C@@H]1O[C@H](CO)[C@@H](O)[C@H]1O [Compound 18, N1-(β-D-Ribofuranosyl)-N9-(4-hydroxybutyl)-8-bromohypoxanthine]",–,–,solubility in the assay medium [4]: insoluble in the assay medium
"O=c1c2ncn(CCCCO)c2ncn1[C@@H]1O[C@H](CO)[C@@H](O)[C@H]1O [Compound 19, N1-(β-D-Ribofuranosyl)-N9-(4-hydroxybutyl)-hypoxanthine]",–,~2300 µM,–
"[N-]=[N+]=Nc1nc2c(=O)n([C@@H]3O[C@H](CO)[C@@H](O)[C@H]3O)cnc2n1CCCCO [Compound 20, N1-(β-D-Ribofuranosyl)-N9-(4-hydroxybutyl)-8-azidohypoxanthine]",–,~9500 µM,–
"Nc1nc2c(=O)n([C@@H]3O[C@H](CO)[C@@H](O)[C@H]3O)cnc2n1CCCCO [Compound 21, N1-(β-D-Ribofuranosyl)-N9-(4-hydroxybutyl)-8-aminohypoxanthine]",–,~3300 µM,–
"O=c1c2ncn(CCCCO)c2ncn1[C@@H]1O[C@H](COP(=O)(O)O)[C@@H](O)[C@H]1O [Compound 23, N1-(5′-O-Phosphoryl-β-D-ribofuranosyl)-N9-(4-hydroxybutyl)hypoxanthine]",–,757 µM,–
"[N-]=[N+]=Nc1nc2c(=O)n([C@@H]3O[C@H](COP(=O)(O)O)[C@@H](O)[C@H]3O)cnc2n1CCCCO [Compound 24, N1-(5′-O-Phosphoryl-β-D-ribofuranosyl)-N9-(4-hydroxybutyl)-8-azidohypoxanthine]",–,201 µM,–
"Nc1nc2c(=O)n([C@@H]3O[C@H](COP(=O)(O)O)[C@@H](O)[C@H]3O)cnc2n1CCCCO [Compound 25, N1-(5′-O-Phosphoryl-β-D-ribofuranosyl)-N9-(4-hydroxybutyl)-8-aminohypoxanthine]",–,332 µM,–
"O=c1c2nc(Br)[nH]c2ncn1[C@H]1O[C@@H](COP(=O)(O)O)[C@H](O)[C@@H]1O [Compound 26, N1-(5′-O-Phosphoryl-β-L-ribofuranosyl)-8-bromohypoxanthine]",–,230 ± 9 µM,–
"O=c1c2nc[nH]c2ncn1[C@H]1O[C@@H](COP(=O)(O)O)[C@H](O)[C@@H]1O [Compound 27, N1-(5′-O-Phosphoryl-β-L-ribofuranosyl)-hypoxanthine]",–,460 µM,fold reduction in activity compared to parent / D-ribose N1-IMP counterpart (CD38 [3]; ratio of IC50 values): 30 fold
"NS(=O)(=O)OC[C@H]1O[C@@H](n2cnc3[nH]c(Cl)nc3c2=O)[C@H](O)[C@@H]1O [Compound 28, N1-(5′-O-sulfonamide-β-D-ribofuranosyl)-8-chlorohypoxanthine]","neither of the two analogues (28, 29) showed any activity",–,inhibitory activity (IC50) of CD38-mediated cADPR hydrolysis (CD38 [3]): No activity
"NS(=O)(=O)OC[C@H]1O[C@@H](n2cnc3[nH]cnc3c2=O)[C@H](O)[C@@H]1O [Compound 29, N1-(5′-O-sulfonamide-β-D-ribofuranosyl)-hypoxanthine]","neither of the two analogues (28, 29) showed any activity",–,inhibitory activity (IC50) of CD38-mediated cADPR hydrolysis (CD38 [3]): No activity
